Source: patent publication US20130331266A1, “METHOD FOR CONTROLLING WEEDS IN PADDY RICE CULTIVATION” (SUMITOMO CHEMICAL COMPANY, LIMITED, priority 2011, published 2013)

Columns and labels:
Type in all cases: in vivo
Echinochloa oryzicola [1] = test: Pot test Example 3: herbicidal effect on Echinochloa oryzicola, spray on drained soil then flooding; settings: score 0-100, 25 g/ha, 4th leaf stage, evaluated 2 weeks after application
Protocol: (§1) In Examples of the method of the present invention, a criterion for evaluating a herbicidal effect is as follows.
A 1/10000-are pot was filled with a paddy field soil, and then water was added thereto followed by soil puddling. After draining, a pre-germinated Echinochloa oryzicola was sown, and then grown in a glasshouse. Sixteen (16) days after the sowing when Echinochloa oryzicola had the 4th leaves, each water-diluted solution containing 112 ppm of Compound 2 or Compound 3 was applied by spraying on the surface of the pot with a sprayer so that each amount of Compound 2 and Compound 3 as listed in Table 3 was applied. Each water-diluted solution of Compound 2 and Compound 3 was prepared by dissolving a given amount of Compound 2 or Compound 3 in acetone containing 2% (w/v) of Tween 20, followed by diluting the resulting solution with water so that the concentration of acetone was 10% by volume. When applying the water-diluted solution, the soil was well drained. The pot was flooded with water to a depth of 5 cm on the day of the application of the herbicide, the next day of the application of the herbicide, 3 days after the application of the herbicide, or 7 days after the application of the herbicide. And then, the plant was grown in the glasshouse.
Two (2) weeks after the application of the herbicide, the herbicidal effect on Echinochloa oryzicola was evaluated.

Leptochloa chinenisis = test: Pot test Example 5: herbicidal effect on Leptochloa chinenisis, spray at 0.5 cm water then flooding; settings: score 0-100, 100 g/ha, second or third leaf stage, evaluated 2 weeks after application
Protocol: as §1
A 1/10000-are Wagner pot was filled with a paddy field soil, and then water was added thereto followed by soil puddling. After draining, a pre-germinated Leptochloa chinenisis was sown, and then grown in a glasshouse. Sixteen (16) days after the sowing when Leptochloa chinenisis had the second or third leaves, each water-diluted solution containing 50 ppm of Compound 1, Compound 2, or Compound 3 was applied by spraying on the surface of the pot with a sprayer so that each amount of Compound 1, Compound 2, and Compound 3 as listed in Table 4 was applied. When applying the water-diluted solution, the pot was flooded to a depth of 0.5 cm. The pot was flooded with water to a depth of 4 cm or 2 cm on the next day of the application of the herbicide or 5 days after the application of the herbicide. And then, the plant was grown in the glasshouse.
Two (2) weeks after the application of the herbicide, the herbicidal effect on Leptochloa chinenisis was evaluated.

Echinochloa oryzicola [2] = test: Pot test Example 1: herbicidal effect on Echinochloa oryzicola, spray on drained soil then flooding; settings: score 0-100, 30 g/ha, 4th leaf stage, evaluated 4 weeks after application
Protocol: as §1
(§2) A 1/5000-are Wagner pot was filled with a paddy field soil, and then water was added thereto followed by soil puddling. After draining, a pre-germinated Echinochloa oryzicola was sown, and then grown in a glasshouse. Fourteen (14) days after the sowing when Echinochloa oryzicola had the 4th leaves, a water-diluted solution (134 ppm of Compound 1) of a flowable containing 10% Compound 1 was applied by spraying on the surface of the pot with a sprayer so that the amount of Compound 1 as listed in Table 1 was applied. When applying the water-diluted solution, the soil was well drained. The pot was flooded with water to a depth of 5 cm on the day of the application of the herbicide, the next day of the application of the herbicide, or 3 days after the application of the herbicide. And then, the plant was grown in the glasshouse. Four (4) weeks after the application of the herbicide, the herbicidal effect on Echinochloa oryzicola was evaluated.

Echinochloa oryzicola [3] = test: Pot test Example 2: herbicidal effect on Echinochloa oryzicola, spray on drained soil then flooding; settings: score 0-100, 25 g/ha, 4th leaf stage, evaluated 4 weeks after application
Protocol: as §1
as §2, with “A 1/10000-are” for “A 1/5000-are Wagner”, “glasshouse. Sixteen (16)” for “glasshouse. Fourteen (14)”, “solution (112” for “solution (134”, “1)” for “1) of”, “Table 2” for “Table 1”, “applying with” for “applying”

[4] = flooded to 5 cm 3 days after treatment
[5] = flooded to 5 cm 7 days after treatment
[6] = flooded to 5 cm on day of treatment
[7] = flooded to 5 cm on next day of treatment
[8] = flooded 5 days after treatment, depth 4 cm
[9] = flooded next day of treatment, depth 2 cm
[10] = flooded next day of treatment, depth 4 cm

Compound	Herbicidal effect on Echinochloa oryzicola (Echinochloa oryzicola [1]; [4])	Herbicidal effect on Echinochloa oryzicola (Echinochloa oryzicola [1]; [5])	Herbicidal effect on Echinochloa oryzicola (Echinochloa oryzicola [1]; [6])	Herbicidal effect on Echinochloa oryzicola (Echinochloa oryzicola [1]; [7])	Herbicidal effect on Leptochloa chinenisis (Leptochloa chinenisis; [8])	Herbicidal effect on Leptochloa chinenisis (Leptochloa chinenisis; [9])	Herbicidal effect on Leptochloa chinenisis (Leptochloa chinenisis; [10])	Herbicidal effect on Echinochloa oryzicola (Echinochloa oryzicola [2]; [4])	Herbicidal effect on Echinochloa oryzicola (Echinochloa oryzicola [2]; [6])	Herbicidal effect on Echinochloa oryzicola (Echinochloa oryzicola [2]; [7])	Herbicidal effect on Echinochloa oryzicola (Echinochloa oryzicola [3]; [4])	Herbicidal effect on Echinochloa oryzicola (Echinochloa oryzicola [3]; [6])	Herbicidal effect on Echinochloa oryzicola (Echinochloa oryzicola [3]; [7])
COCc1cccc(C(O)c2nc(OC)cc(OC)n2)c1NS(=O)(=O)C(F)F (racemic) [Compound 2, (RS)-2′-[(4,6-Dimethoxypyrimidin-2-yl)(hydroxy)methyl]-1,1-difluoro-6′-(methoxymethyl)methanesulfonanilide]	90	80	89	92	80	80	90	–	–	–	–	–	–
COc1cc(OC)nc(NC(=O)NS(=O)(=O)c2c(C3=NOCC(C)O3)c(Cl)nn2C)n1 (racemic) [Compound 3, 1-{3-Chloro-1-methyl-4-[(5RS)-5,6-dihydro-5-methyl-1,4,2-dioxazin-3-yl]pyrazol-5-ylsulfonyl}-3-(4,6-dimethoxypyrimidin-2-yl)urea]	75	75	83	83	60	–	90	–	–	–	–	–	–
CCCc1ccc2nc(Cl)c(S(=O)(=O)NC(=O)Nc3nc(OC)cc(OC)n3)n2n1 [Compound 1, 1-(2-Chloro-6-propylimidazo[1,2-b]pyridazin-3-ylsulfonyl)-3-(4,6-dimethoxypyrimidin-2-yl)urea]	–	–	–	–	75	75	90	90	96	97	85	88	93
